{
  "source": "patent US12534477B2",
  "about": "“Compound having KHK inhibitory effect” (HANGZHOU ZHONGMEIHUADONG PHARMACEUTICAL CO., LTD., priority 2019, dated 2026)",
  "key": {"[1]": {"assay": "Pharmacokinetic evaluation in SD rats", "assay_type": "in vivo", "conditions": "rat, plasma", "procedure": "In vivo pharmacokinetics of compounds in SD rats were tested.\nPharmacokinetic profiles in rodents following intravenous and oral administration of the compounds were tested by standard protocols. In the experiment, candidate compounds were formulated as clear solutions or homogeneous suspensions, and were administered to rats by single intravenous injection (IV, 1 mpk) and oral administration (PO, 3 mpk). The vehicle for intravenous injection was a certain proportion of PEG400 in water, and the vehicle for oral administration was a certain proportion of methylcellulose and Tween 80 in water. Whole blood was collected, and plasma was prepared. Drug concentration was analyzed by LC-MS/MS, and pharmacokinetic parameters were calculated by Phoenix WinNonlin software."}, "CYP1A2": {"biological_target": "CYP1A2 (Homo sapiens (Human), UniProt P05177)", "sequence (P05177 whole entry)": "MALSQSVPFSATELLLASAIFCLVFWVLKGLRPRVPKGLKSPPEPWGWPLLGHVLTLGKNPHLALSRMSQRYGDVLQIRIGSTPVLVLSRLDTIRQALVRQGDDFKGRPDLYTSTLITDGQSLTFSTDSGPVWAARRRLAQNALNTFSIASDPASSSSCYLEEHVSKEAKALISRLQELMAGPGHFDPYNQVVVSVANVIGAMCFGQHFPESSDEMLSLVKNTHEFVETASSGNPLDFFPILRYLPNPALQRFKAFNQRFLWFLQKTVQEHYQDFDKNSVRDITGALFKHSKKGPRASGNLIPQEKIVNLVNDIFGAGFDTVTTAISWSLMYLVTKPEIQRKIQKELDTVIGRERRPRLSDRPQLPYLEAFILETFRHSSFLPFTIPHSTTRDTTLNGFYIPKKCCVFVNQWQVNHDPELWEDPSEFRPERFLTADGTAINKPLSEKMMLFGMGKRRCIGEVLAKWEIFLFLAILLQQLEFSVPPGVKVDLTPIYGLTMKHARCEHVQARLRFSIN", "assay_type": "in vitro ADME", "conditions": "human, microsomes, 10 min", "procedure": "The inhibitory effect of test compounds on the activity of human hepatic microsomal cytochrome P450 isozymes (CYP1A2, CYP2C9, CYP2C19, CYP2D6 and CYP3A4) was determined.\nFirst, the test compound (10 mM) was diluted in gradient to prepare working solutions (100×final concentration) with working solution concentrations: 5, 1.5, 0.5, 0.15, 0.05, 0.015, 0.005 mM, respectively, and at the same time, working solutions of each positive inhibitor of P450 isozymes (CYP1A2, CYP2C9, CYP2C19, CYP2D6 and CYP3A4) and its specific substrate mixture were prepared. Human liver microsomes frozen in a −80° C. refrigerator were thawed on ice, and diluted with PB (phosphate buffer) after all the human liver microsomes were dissolved, to prepare a working solution at a certain concentration (0.253 mg/mL). 20 μl substrate mixture was added to the reaction plate (20 μL PB was added to the Blank wells) while 158 μL human liver microsome working solution was added to the reaction plate which was placed on ice for later use. At this time, 2 μL of each concentration of the test compound (N=1) and the specific inhibitor (N=2) were added to the corresponding wells, and the corresponding organic solvents were added to the groups without inhibitors (the test compound or the positive inhibitor) as control samples (1:1 DMSO:MeOH for the test compound control sample, and 1:9 DMSO:MeOH for the positive control sample). After pre-incubation in 37° C. water bath for 10 min, 20 μL coenzyme factor (NADPH) solution was added to the reaction plate, and incubated in 37° C. water bath for 10 min. 400 μL cold acetonitrile solution (200 ng/mL Tolbutamide and Labetalol as the internal standard) was added to stop the reaction. The reaction plate was placed on a shaker and shaken for 10 min. The mixture was centrifuged at 4,000 rpm for 20 min, and 200 μl the supernatant was added to 100 μL water for sample dilution. Finally, the plate was sealed, shaken, mixed well and detected by LC/MS/MS."}, "[2]": {"biological_target": "Recombinant Human Ketohexokinase (KHK) (Homo sapiens (Human), UniProt P50053)", "sequence (P50053 whole entry)": "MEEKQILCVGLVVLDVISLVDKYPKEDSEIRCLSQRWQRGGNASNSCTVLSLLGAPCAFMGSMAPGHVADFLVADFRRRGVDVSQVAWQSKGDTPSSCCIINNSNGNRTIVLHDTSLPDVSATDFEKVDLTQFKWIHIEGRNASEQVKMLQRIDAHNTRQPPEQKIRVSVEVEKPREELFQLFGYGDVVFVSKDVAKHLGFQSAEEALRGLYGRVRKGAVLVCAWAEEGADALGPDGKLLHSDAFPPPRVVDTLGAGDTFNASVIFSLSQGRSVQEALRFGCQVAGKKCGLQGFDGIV", "assay": "Ketohexokinase assay (KHK assay), ADP-Glo", "assay_type": "biochemical", "procedure": "• 1. EnVision multilabel reader, Perkin Elmer; • 2. OptiPlate 384-well microplate, Perkin Elmer, Cat. No. 6007290; • 3. Recombinant Human Ketohexokinase (KHK), R&D Cat. No.: 8177-HK-020, Lot No.: DDFK0117092; • 4. Fructose (D(−)-Fructose), SCR Cat. No.: 36003034; and • 5. ADP-Glo kinase assay kit, Promega_Cat. No.: V9101.\n1. preparation of Dilution Buffer containing 50 mM hydroxyethylpiperazine […] (Hepes), 140 mM KCl, 3.5 mM MgCl2, and 0.01% bovine serum albumin (BSA), pH 7.4.\n2. A working solution of ketohexokinase at 2.5 times concentration was prepared with Dilution Buffer, with 50 nM ketohexokinase and 12.5 mM fructose.\n3. A working solution of adenosine triphosphate (ATP) at 2.5 times concentration was prepared with Dilution Buffer, with a concentration of 250 μM.\n4. Each compound was diluted starting at a concentration of 500 μM, 3-fold diluted for 9 concentration points. The final concentration of the compound in the reaction system started from 10 μM and the final concentration of dimethyl sulfoxide (DMSO) was 2%.\n5. A 96-well plate was prepared as a reaction plate, and was incubated at room temperature for 5 min after adding 6 μL ketohexokinase working solution at 2.5 times concentration to each well and further adding 3 μL compound working solution to each well.\n6. The first well of each row was a positive control for a compound, i.e. the same volume of the buffer was added to replace the compound and ketohexokinase. The last well was a negative control for the compound, i.e. the same volume of Dilution Buffer was added instead of the compound.\n7. 6 μL ATP working solution was added to each well in a 96-well reaction plate to initiate the kinase reaction. The kinase reaction was incubated in a constant temperature heater at 28° C. for 1 h.\n1. A384 plate was prepared as a detection plate, and firstly 5 μL ADP-Glo reagent was added.\n2. 5 μL kinase reaction mixture from the reaction plate was added to each well and incubated in a constant temperature heater at 28° C. for 30 min.\n3. 10 μL kinase detection reagent was added to each well and incubated in a constant temperature heater at 28° C. for 30 min.\n4. The detection plate was placed in an EnVision multilabel reader to read the chemiluminescent signal."}, "[3]": {"assay": "Liver-blood ratio, tissue distribution in rats", "assay_type": "in vivo, SD rats", "conditions": "SD, rat, 1 mg/kg, PO 1 mpk", "procedure": "Tissue distribution of compounds in SD rats was tested.\nIn the experiment, candidate compounds were formulated as clear solutions and administered to rats in a single oral dose (PO, 1 mpk). The vehicle for oral administration was a certain proportion of methylcellulose and Tween 80 in water. Whole blood was collected at a certain time and plasma was prepared, and tissues were collected at the corresponding time and prepared into tissue homogenates. Drug concentration was analyzed by LC-MS/MS, and pharmacokinetic parameters were calculated by Phoenix WinNonlin software."}, "[4]": {"conditions": "brain, read-out: Brain tissue concentration"}, "[5]": {"conditions": "brain/plasma, read-out: Brain-blood ratio"}, "[6]": {"conditions": "liver, read-out: Liver tissue concentration"}, "[7]": {"conditions": "liver/plasma, read-out: Liver-blood ratio"}, "[8]": {"conditions": "plasma, read-out: Plasma concentration"}},
  "note": "Like-named read-outs stand apart in the source and are kept apart here.",
  "data": [
    {"smiles": "C[C@H]1CCN1c1nc(N2C[C@@H]3[C@@H](CC(=O)O)[C@@H]3C2)c2ccsc2n1", "note": "[WX004]", "values": [
      {"measurement": "clearance", "setting": "[1]; 1 mg/kg, IV 1 mpk, read-out: Clearance rate", "result": 0.0726, "unit": "L/h/kg"},
      {"measurement": "bioavailability", "setting": "[1]; 3 mg/kg, IV 1 mpk, PO 3 mpk, read-out: Bioavailability F", "result": 80, "unit": "%"},
      {"measurement": "AUC", "setting": "[1]; 3 mg/kg, PO 3 mpk, read-out: Integral concentration AUC for PO", "result": 64.5, "unit": "µM·h"},
      {"measurement": "half-life", "setting": "[1]; IV 1 mpk and PO 3 mpk study, read-out: Half-life T1/2 (converted)", "result": 2.96, "unit": "h"},
      {"measurement": "IC50", "setting": "CYP1A2", "result": "> 50", "unit": "µM"},
      {"measurement": "IC50", "setting": "[2]", "result": 0.049, "unit": "µM"},
      {"measurement": "concentration at 1.5 h", "setting": "[3]; [4]", "result": 0.105, "unit": "µM"},
      {"measurement": "concentration at 2 h", "setting": "[3]; [4]", "result": 0.148, "unit": "µM"},
      {"measurement": "concentration at 6 h", "setting": "[3]; [4]", "result": 0.071, "unit": "µM"},
      {"measurement": "Kp at 1.5 h", "setting": "[3]; [5]", "result": 0.022},
      {"measurement": "Kp at 2 h", "setting": "[3]; [5]", "result": 0.019},
      {"measurement": "Kp at 6 h", "setting": "[3]; [5]", "result": 0.023},
      {"measurement": "concentration at 1.5 h", "setting": "[3]; [6]", "result": 4.42, "unit": "µM"},
      {"measurement": "concentration at 2 h", "setting": "[3]; [6]", "result": 6.37, "unit": "µM"},
      {"measurement": "concentration at 6 h", "setting": "[3]; [6]", "result": 3.9, "unit": "µM"},
      {"measurement": "Kp at 1.5 h", "setting": "[3]; [7]", "result": 0.943},
      {"measurement": "Kp at 2 h", "setting": "[3]; [7]", "result": 0.821},
      {"measurement": "Kp at 6 h", "setting": "[3]; [7]", "result": 1.22},
      {"measurement": "concentration at 1.5 h", "setting": "[3]; [8]", "result": 4.67, "unit": "µM"},
      {"measurement": "concentration at 2 h", "setting": "[3]; [8]", "result": 7.75, "unit": "µM"},
      {"measurement": "concentration at 6 h", "setting": "[3]; [8]", "result": 3.67, "unit": "µM"}
    ]}
  ]
}
